The source of these data is article PMC3036843 (Bioconjugate chemistry, 2010).

For data set [1], the system named is L1210FR. The conditions noted are these: for differences in IC50 values against the three cell lines: L1210FR, L1210, WI38, at most.
The nature of data set [2]: in vitro. The conditions noted are these: human, WI38 human lung fibroblast cells.
Data set [3] has as its system L1210. Description: cells. The conditions noted are these: Mus musculus, L1210, 72 h, read-out: Cytotoxicities (IC50), L1210.
The conditions of data set [4]: taxoid released from first-generation mAb-taxoid DDS; cited from earlier work.
Data set [5] has as its system L1210FR cells. Description: Internalization of biotin-FITC probe 2 by CFM and flow cytometry. It counts as cell-based, murine. The conditions noted are these: 100 nM.

A word on the IC50: it is the concentration that inhibits the measured activity by half.

`CC(=O)O[C@@]12CO[C@@H]1C[C@H](O)[C@@]1(C)C(=O)[C@H](OC(=O)C3CC3)C3=C(C)[C@@H](OC(=O)[C@H](O)[C@H](C=C(C)C)NC(=O)OC(C)(C)C)C[C@@](O)([C@@H](OC(=O)c4ccccc4)[C@H]21)C3(C)C` [SB-T-1214]: in data set [1] (against L1210FR), the “times more potent than paclitaxel” value is reported as “ca. 13 times”.
In data set [2], `CC(=O)O[C@H]1C(=O)[C@@]2(C)[C@H]([C@H](OC(=O)c3ccccc3)[C@]3(O)C[C@H](OC(=O)[C@H](O)[C@@H](NC(=O)c4ccccc4)c4ccccc4)C(C)=C1C3(C)C)[C@]1(OC(C)=O)CO[C@@H]1C[C@@H]2O` [paclitaxel, reference compound] registered an IC50 at 72 h of 0.157 µM. The “differences in IC50 values against the three cell lines” value in data set [1] is on record as “less than 45%”. Moreover, the IC50 in data set [1] (mouse, 72 h) stood at 0.121 µM; in data set [3] it was 0.151 µM.
For the compound SB-T-1214-fluorescein [compound 24], in data set [1], the “differences in IC50 values against the three cell lines” value is on record as “less than 45%”. Besides, the “times less potent than the parent SB-T-1214” value in data set [1] (against L1210FR) was “ca. 9 times”.
Take SB-T-12136-SH: the “cytotoxicity, times weaker than the parent taxoid (SB-T-1213)” value in data set [4] was 8 times.
Turning to biotin-FITC [compound 2], the “diminished fluorescence in the cells at 4 °C” value in data set [5] (4 °C, 3 h versus 37 °C, by flow cytometry) is reported as “ca. 6 times”. For the same compound, the “internalization into L1210FR cells (CFM)” value in data set [5] (37 °C, 3 h) was “efficient internalization”. Also, the “decrease in fluorescence after pre-incubation with excess free biotin” value in data set [5] (37 °C, 3 h, biotin 2 mM pre-incubated 1 h) is on record as “ca. 4.5 times”. For the same compound, the “decrease in fluorescence inside the cells in the presence of NaN3” value in data set [5] (3 h, 37 °C, 0.05 % (w/v) NaN3) is on record as “ca. 4 times”.
